Measurements: ChEMBL document CHEMBL3525934 (Drug Metab Dispos, 2013)

Key:
Type in all cases: ADME
Settings in all cases: 0.5 h
Cytochrome P450 2C18 = molecular target: T1, Cytochrome P450 2C18 (Homo sapiens, UniProt P33260); experiment: Drug metabolism in supersomes expressing human recombinant CYP2C18 assessed as enzyme-mediated clozapine-N-oxide metabolite formation at 100 uM after 30 mins measured per nmol of P450 by HPLC analysis
T1 sequence (P33260 whole entry): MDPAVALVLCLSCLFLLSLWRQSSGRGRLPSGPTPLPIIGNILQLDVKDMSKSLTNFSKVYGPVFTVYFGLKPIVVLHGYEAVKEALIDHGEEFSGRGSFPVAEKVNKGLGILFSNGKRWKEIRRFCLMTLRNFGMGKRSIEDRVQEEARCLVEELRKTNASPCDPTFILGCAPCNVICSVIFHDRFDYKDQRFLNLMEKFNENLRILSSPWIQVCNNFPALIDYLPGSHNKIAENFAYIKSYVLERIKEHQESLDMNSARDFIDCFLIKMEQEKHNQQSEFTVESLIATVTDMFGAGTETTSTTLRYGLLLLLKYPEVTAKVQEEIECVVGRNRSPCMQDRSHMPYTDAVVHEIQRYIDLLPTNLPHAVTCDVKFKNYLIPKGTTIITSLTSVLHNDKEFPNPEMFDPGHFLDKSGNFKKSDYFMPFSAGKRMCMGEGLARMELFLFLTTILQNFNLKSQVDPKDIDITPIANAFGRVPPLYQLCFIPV

Cytochrome P450 1A2 [1] = molecular target: T2, Cytochrome P450 1A2 (Homo sapiens, UniProt P05177); experiment: Drug metabolism in supersomes expressing human recombinant CYP1A2 assessed as enzyme-mediated clozapine-N-oxide metabolite formation at 10 uM after 30 mins measured per nmol of P450 by HPLC analysis
T2 sequence (P05177 whole entry): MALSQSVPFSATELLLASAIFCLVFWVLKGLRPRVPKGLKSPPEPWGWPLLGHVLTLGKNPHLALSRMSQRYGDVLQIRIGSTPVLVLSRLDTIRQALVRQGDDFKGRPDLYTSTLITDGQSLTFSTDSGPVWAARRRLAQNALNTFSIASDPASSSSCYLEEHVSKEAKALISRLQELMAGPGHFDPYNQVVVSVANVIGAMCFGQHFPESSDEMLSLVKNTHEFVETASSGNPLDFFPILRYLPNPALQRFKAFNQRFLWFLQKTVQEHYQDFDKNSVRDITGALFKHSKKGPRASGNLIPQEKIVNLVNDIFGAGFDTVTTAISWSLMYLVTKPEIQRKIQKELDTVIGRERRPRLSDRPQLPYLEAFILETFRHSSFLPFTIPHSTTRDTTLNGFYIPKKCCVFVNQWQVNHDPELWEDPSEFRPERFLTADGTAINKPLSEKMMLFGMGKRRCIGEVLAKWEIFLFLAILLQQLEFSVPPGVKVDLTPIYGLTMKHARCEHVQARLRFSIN

Cytochrome P450 2C8 = molecular target: T3, Cytochrome P450 2C8 (Homo sapiens, UniProt P10632); experiment: Drug metabolism in supersomes expressing human recombinant CYP2C8 assessed as enzyme-mediated clozapine-N-oxide metabolite formation at 10 uM after 30 mins measured per nmol of P450 by HPLC analysis
T3 sequence (P10632 whole entry): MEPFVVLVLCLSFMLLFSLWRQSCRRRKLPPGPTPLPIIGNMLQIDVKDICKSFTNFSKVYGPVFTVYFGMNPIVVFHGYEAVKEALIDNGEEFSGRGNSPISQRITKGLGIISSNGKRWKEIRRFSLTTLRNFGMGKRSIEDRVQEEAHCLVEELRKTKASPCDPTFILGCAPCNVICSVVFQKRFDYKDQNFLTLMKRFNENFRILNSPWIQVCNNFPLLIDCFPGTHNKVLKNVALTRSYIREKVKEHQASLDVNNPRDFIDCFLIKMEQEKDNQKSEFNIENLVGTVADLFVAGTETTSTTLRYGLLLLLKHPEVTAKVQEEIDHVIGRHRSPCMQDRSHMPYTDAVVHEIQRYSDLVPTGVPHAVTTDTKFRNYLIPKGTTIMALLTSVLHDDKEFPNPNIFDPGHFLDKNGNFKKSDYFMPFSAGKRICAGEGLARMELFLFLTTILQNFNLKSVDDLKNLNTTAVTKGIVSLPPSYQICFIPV

Cytochrome P450 2C9 [2] = molecular target: T4, Cytochrome P450 2C9 (Homo sapiens, UniProt P11712); experiment: Drug metabolism in supersomes expressing human recombinant CYP2C9 assessed as enzyme-mediated N-desmethylclozapine metabolite formation at 10 uM after 30 mins measured per nmol of P450 by HPLC analysis
T4 sequence (P11712 whole entry): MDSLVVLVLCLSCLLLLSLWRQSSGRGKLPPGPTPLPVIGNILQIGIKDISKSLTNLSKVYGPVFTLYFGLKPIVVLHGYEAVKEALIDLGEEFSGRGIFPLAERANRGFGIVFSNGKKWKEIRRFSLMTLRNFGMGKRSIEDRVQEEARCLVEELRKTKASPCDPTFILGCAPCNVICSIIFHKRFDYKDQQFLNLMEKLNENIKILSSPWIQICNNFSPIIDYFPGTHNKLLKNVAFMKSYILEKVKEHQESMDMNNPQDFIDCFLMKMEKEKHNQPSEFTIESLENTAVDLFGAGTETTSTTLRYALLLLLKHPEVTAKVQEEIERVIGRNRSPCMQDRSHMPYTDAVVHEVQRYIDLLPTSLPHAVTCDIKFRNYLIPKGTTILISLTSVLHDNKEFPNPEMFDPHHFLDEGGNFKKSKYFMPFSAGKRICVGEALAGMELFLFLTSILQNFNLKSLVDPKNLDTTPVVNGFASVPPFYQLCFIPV

Cytochrome P450 2D6 = Cytochrome P450 2D6 (Homo sapiens, UniProt P10635); experiment: Drug metabolism in supersomes expressing human recombinant CYP2D6 assessed as enzyme-mediated cyanide adduct formation at 100 uM after 30 mins measured per nmol of P450 by HPLC analysis in presence of KCN
Chain of Cytochrome P450 2D6 (P10635 whole entry): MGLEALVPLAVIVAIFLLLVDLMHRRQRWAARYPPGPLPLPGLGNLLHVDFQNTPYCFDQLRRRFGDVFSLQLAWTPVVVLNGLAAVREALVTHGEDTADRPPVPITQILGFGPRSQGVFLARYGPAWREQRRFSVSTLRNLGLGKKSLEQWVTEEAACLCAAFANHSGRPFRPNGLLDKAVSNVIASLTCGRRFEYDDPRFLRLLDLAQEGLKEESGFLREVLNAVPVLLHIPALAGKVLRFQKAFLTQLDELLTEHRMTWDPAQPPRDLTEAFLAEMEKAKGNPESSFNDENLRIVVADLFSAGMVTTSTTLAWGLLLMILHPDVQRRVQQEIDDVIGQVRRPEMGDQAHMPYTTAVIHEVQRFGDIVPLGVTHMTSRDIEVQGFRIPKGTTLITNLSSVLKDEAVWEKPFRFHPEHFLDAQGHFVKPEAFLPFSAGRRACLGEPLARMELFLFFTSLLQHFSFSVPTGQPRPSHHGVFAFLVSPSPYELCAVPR

Cytochrome P450 1A1 = molecular target: T5, Cytochrome P450 1A1 (Homo sapiens, UniProt P04798); experiment: Drug metabolism in supersomes expressing human recombinant CYP1A1 assessed as enzyme-mediated total GSH conjugate formation at 10 uM after 30 mins measured per nmol of P450 by HPLC analysis in presence of GSH and hGST P1-1
T5 sequence (P04798 whole entry): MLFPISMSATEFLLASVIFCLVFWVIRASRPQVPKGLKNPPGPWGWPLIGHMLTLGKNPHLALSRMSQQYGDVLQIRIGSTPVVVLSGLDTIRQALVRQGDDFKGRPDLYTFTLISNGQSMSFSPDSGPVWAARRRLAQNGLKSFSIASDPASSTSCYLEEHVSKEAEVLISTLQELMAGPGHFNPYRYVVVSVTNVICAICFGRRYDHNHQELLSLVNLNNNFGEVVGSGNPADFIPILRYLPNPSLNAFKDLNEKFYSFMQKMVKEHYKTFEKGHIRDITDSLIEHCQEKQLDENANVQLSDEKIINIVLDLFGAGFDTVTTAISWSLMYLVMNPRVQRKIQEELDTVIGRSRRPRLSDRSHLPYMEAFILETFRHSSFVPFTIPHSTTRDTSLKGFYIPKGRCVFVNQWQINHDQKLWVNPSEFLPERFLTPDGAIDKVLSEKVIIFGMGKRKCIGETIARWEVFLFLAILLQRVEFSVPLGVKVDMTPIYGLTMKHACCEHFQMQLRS

Cytochrome P450 2C9 [3] = molecular target: T4, Cytochrome P450 2C9; experiment: Drug metabolism in supersomes expressing human recombinant CYP2C9 assessed as enzyme-mediated clozapine-N-oxide metabolite formation at 10 uM after 30 mins measured per nmol of P450 by HPLC analysis
Cytochrome P450 1A2 [4] = molecular target: T2, Cytochrome P450 1A2; experiment: Drug metabolism in supersomes expressing human recombinant CYP1A2 assessed as enzyme-mediated N-desmethylclozapine metabolite formation at 10 uM after 30 mins measured per nmol of P450 by HPLC analysis

## CN1CCN(C2=Nc3cc(Cl)ccc3Nc3ccccc32)CC1 [CLOZAPINE]
Cytochrome P450 2C18
  Drug metabolism: 0.065 nmol/min
Cytochrome P450 1A2 [1]
  Drug metabolism: 0.55 nmol/min/nmol P450
Cytochrome P450 2C8
  Drug metabolism: 0.1 nmol/min
Cytochrome P450 2C9 [2]
  Drug metabolism: 0.33 nmol/min
Cytochrome P450 2D6
  Drug metabolism: 0.64 nmol/min
Cytochrome P450 1A1
  Drug metabolism: 0.3 nmol/min
Cytochrome P450 2C9 [3]
  Drug metabolism: 0.065 nmol/min
Cytochrome P450 1A2 [4]
  Drug metabolism: 1.12 nmol/min
